Measurements reported in patent US11896573B2, “Pharmaceutical compositions and pharmacokinetics of a gamma-hydroxybutyric acid derivative” (priority 2020, dated 2024).
Where two headings read alike, the source gives them in different places.

Test: Multiple ascending dose study, plasma pharmacokinetics of Compound (1) and GHB
Type: in vivo, human
Conditions: for AUC(0-inf) / AUC(0-t) / Cmax / half-life / Tmax: human, plasma, oral; for Tmax: read-out: Compound (1) plasma Tmax, Median
Description: The plasma concentrations of Compound (1) and GHB in plasma in healthy human subjects were measured using liquid chromatography tandem mass-spectroscopy and evaluated using PHOENIX™ WINNONLIN® version 8.1 (Pharsight Corporation, USA) and MICROSOFT® EXCEL® (Microsoft Corporation, USA).
All randomized subjects who received Compound (1), with available pharmacokinetic (PK) data and without relevant deviations interfering with the PK evaluations, were included. Subjects who received only placebo were excluded from the PK population. In addition, the PK population was used for the summaries and analyses of all PK data.
A multiple ascending dose study was undertaken to evaluate the pharmacokinetics of multiple doses of Compound (1) in 3 cohorts of healthy subjects (with 8 subjects/cohort). Within each cohort, the subjects were randomized to receive Compound (1) or placebo at a ratio of 6:2 (active: placebo) for 7 days (or up to 9 days if the cohort included a titration period).
After fasting for at least 3 hours following a standard meal, subjects were randomized on Day 1 and the first dose of study drug (either target dose or titration dose) was administered. The first cohort of subjects (Cohort 8) received the second dose administration at approximately four hours after receiving the first dose. The subsequent […] cohorts (Cohorts 9 and 10) received only one dose per day.
For the first cohort (Cohort 8), the dose used was 6.0 g divided into two equal doses four hours apart for 7 days starting from Day 4 “Dose Day 1” to Day 10 “Dose Day 7”. Subsequent Cohorts 9, 10 received a single daily dose of 4.5 g and 6.0 g during the titration period (Day 1 for Cohort 9, Day 1 and Day 2 for Cohort 10, and after a titration period for 7 days starting from Day 4 “Dose Day 1” to Day 10 “Dose Day 7”. Cohort 11 was not conducted due to API availability.

[1] = Cohort 10 (6.0 g/day in a single dose), Dosing Day 10

Compound: CC(C)[C@H](N)C(=O)OCCCC(=O)O [Compound (1), 4-((L-valyl)oxy)butanoic acid]
- Compound (1) plasma Tmax, Min (Cohort 10 (6.0 g/day in a single dose), Dosing Day 4): 19.8 min
- Compound (1) CL/F, Max [1]: 575 L/h
- Compound (1) CL/F, Mean [1]: 395 L/h
- Compound (1) CL/F, Median [1]: 354 L/h
- Compound (1) CL/F, Min [1]: 284 L/h
- Compound (1) plasma AUC0-inf, Max [1]: 21100 ng·h/mL
- Compound (1) plasma AUC0-inf, Min [1]: 10400 ng·h/mL
- Compound (1) plasma AUC0-tlast, Max [1]: 21100 ng·h/mL
- Compound (1) plasma AUC0-tlast, Min [1]: 10400 ng·h/mL
- Compound (1) plasma Cmax, Max [1]: 24500 ng/mL
- Compound (1) plasma Cmax, Min [1]: 11700 ng/mL
- Compound (1) plasma T1/2, Max [1]: 31.2 min
- Compound (1) plasma T1/2, Min [1]: 17.4 min
- AUC(0-inf) (4.5 g/day, Cohort 9 (4.5 g/day in a single dose), Dosing Day 4, read-out: Compound (1) plasma AUC0-inf, Mean): 12000 ng·h/mL
- AUC(0-inf) (4.5 g/day, Cohort 9 (4.5 g/day in a single dose), Dosing Day 4, read-out: Compound (1) plasma AUC0-inf, Median): 11800 ng·h/mL
- AUC(0-t) (4.5 g/day, Cohort 9 (4.5 g/day in a single dose), Dosing Day 4, read-out: Compound (1) plasma AUC0-tlast, Mean): 11300 ng·h/mL
- AUC(0-t) (4.5 g/day, Cohort 9 (4.5 g/day in a single dose), Dosing Day 4, read-out: Compound (1) plasma AUC0-tlast, Median): 11700 ng·h/mL
- Cmax (4.5 g/day, Cohort 9 (4.5 g/day in a single dose), Dosing Day 4, read-out: Compound (1) plasma Cmax, Mean): 15600 ng/mL
- Cmax (4.5 g/day, Cohort 9 (4.5 g/day in a single dose), Dosing Day 4, read-out: Compound (1) plasma Cmax, Median): 16800 ng/mL
- half-life (4.5 g/day, Cohort 9 (4.5 g/day in a single dose), Dosing Day 4, read-out: Compound (1) plasma T1/2, Mean (converted)): 29.4 min
- half-life (4.5 g/day, Cohort 9 (4.5 g/day in a single dose), Dosing Day 4, read-out: Compound (1) plasma T1/2, Median (converted)): 32.4 min
- AUC(0-inf) (4.5 g/day, Cohort 9 (4.5 g/day in a single dose), Dosing Day 10, read-out: Compound (1) plasma AUC0-inf, Mean): 10800 ng·h/mL
- AUC(0-inf) (4.5 g/day, Cohort 9 (4.5 g/day in a single dose), Dosing Day 10, read-out: Compound (1) plasma AUC0-inf, Median): 10200 ng·h/mL
- AUC(0-t) (4.5 g/day, Cohort 9 (4.5 g/day in a single dose), Dosing Day 10, read-out: Compound (1) plasma AUC0-tlast, Mean): 10700 ng·h/mL
- AUC(0-t) (4.5 g/day, Cohort 9 (4.5 g/day in a single dose), Dosing Day 10, read-out: Compound (1) plasma AUC0-tlast, Median): 10100 ng·h/mL
- Cmax (4.5 g/day, Cohort 9 (4.5 g/day in a single dose), Dosing Day 10, read-out: Compound (1) plasma Cmax, Mean): 14800 ng/mL
- Cmax (4.5 g/day, Cohort 9 (4.5 g/day in a single dose), Dosing Day 10, read-out: Compound (1) plasma Cmax, Median): 15900 ng/mL
- half-life (4.5 g/day, Cohort 9 (4.5 g/day in a single dose), Dosing Day 10, read-out: Compound (1) plasma T1/2, Mean (converted)): 33.6 min
- half-life (4.5 g/day, Cohort 9 (4.5 g/day in a single dose), Dosing Day 10, read-out: Compound (1) plasma T1/2, Median (converted)): 33.6 min
- AUC(0-inf) (6 g/day, Cohort 8 (6.0 g/day divided into equal 2 doses), Dosing Day 4, read-out: Compound (1) plasma AUC0-inf, Mean): 14500 ng·h/mL
- AUC(0-inf) (6 g/day, Cohort 8 (6.0 g/day divided into equal 2 doses), Dosing Day 4, read-out: Compound (1) plasma AUC0-inf, Median): 14800 ng·h/mL
- AUC(0-t) (6 g/day, Cohort 8 (6.0 g/day divided into equal 2 doses), Dosing Day 4, read-out: Compound (1) plasma AUC0-tlast, Mean): 14400 ng·h/mL
- AUC(0-t) (6 g/day, Cohort 8 (6.0 g/day divided into equal 2 doses), Dosing Day 4, read-out: Compound (1) plasma AUC0-tlast, Median): 14800 ng·h/mL
- Cmax (6 g/day, Cohort 8 (6.0 g/day divided into equal 2 doses), Dosing Day 4, read-out: Compound (1) plasma Cmax, Mean): 12100 ng/mL
- Cmax (6 g/day, Cohort 8 (6.0 g/day divided into equal 2 doses), Dosing Day 4, read-out: Compound (1) plasma Cmax, Median): 11500 ng/mL
- half-life (6 g/day, Cohort 8 (6.0 g/day divided into equal 2 doses), Dosing Day 4, read-out: Compound (1) plasma T1/2, Mean (converted)): 31.8 min
- half-life (6 g/day, Cohort 8 (6.0 g/day divided into equal 2 doses), Dosing Day 4, read-out: Compound (1) plasma T1/2, Median (converted)): 16.2 min
- AUC(0-inf) (6 g/day, Cohort 8 (6.0 g/day divided into equal 2 doses), Dosing Day 10, read-out: Compound (1) plasma AUC0-inf, Mean): 14900 ng·h/mL
- AUC(0-inf) (6 g/day, Cohort 8 (6.0 g/day divided into equal 2 doses), Dosing Day 10, read-out: Compound (1) plasma AUC0-inf, Median): 14100 ng·h/mL
- AUC(0-t) (6 g/day, Cohort 8 (6.0 g/day divided into equal 2 doses), Dosing Day 10, read-out: Compound (1) plasma AUC0-tlast, Mean): 14800 ng·h/mL
- AUC(0-t) (6 g/day, Cohort 8 (6.0 g/day divided into equal 2 doses), Dosing Day 10, read-out: Compound (1) plasma AUC0-tlast, Median): 14100 ng·h/mL
- Cmax (6 g/day, Cohort 8 (6.0 g/day divided into equal 2 doses), Dosing Day 10, read-out: Compound (1) plasma Cmax, Mean): 11500 ng/mL
- Cmax (6 g/day, Cohort 8 (6.0 g/day divided into equal 2 doses), Dosing Day 10, read-out: Compound (1) plasma Cmax, Median): 11300 ng/mL
- half-life (6 g/day, Cohort 8 (6.0 g/day divided into equal 2 doses), Dosing Day 10, read-out: Compound (1) plasma T1/2, Mean (converted)): 20.4 min
- half-life (6 g/day, Cohort 8 (6.0 g/day divided into equal 2 doses), Dosing Day 10, read-out: Compound (1) plasma T1/2, Median (converted)): 16.8 min
- AUC(0-inf) (6 g/day, Cohort 10 (6.0 g/day in a single dose), Dosing Day 4, read-out: Compound (1) plasma AUC0-inf, Mean): 17200 ng·h/mL
- AUC(0-inf) (6 g/day, Cohort 10 (6.0 g/day in a single dose), Dosing Day 4, read-out: Compound (1) plasma AUC0-inf, Median): 19000 ng·h/mL
- AUC(0-t) (6 g/day, Cohort 10 (6.0 g/day in a single dose), Dosing Day 4, read-out: Compound (1) plasma AUC0-tlast, Mean): 17100 ng·h/mL
- AUC(0-t) (6 g/day, Cohort 10 (6.0 g/day in a single dose), Dosing Day 4, read-out: Compound (1) plasma AUC0-tlast, Median): 18900 ng·h/mL
- Cmax (6 g/day, Cohort 10 (6.0 g/day in a single dose), Dosing Day 4, read-out: Compound (1) plasma Cmax, Mean): 21300 ng/mL
- Cmax (6 g/day, Cohort 10 (6.0 g/day in a single dose), Dosing Day 4, read-out: Compound (1) plasma Cmax, Median): 23500 ng/mL
- half-life (6 g/day, Cohort 10 (6.0 g/day in a single dose), Dosing Day 4, read-out: Compound (1) plasma T1/2, Mean (converted)): 24.6 min
- half-life (6 g/day, Cohort 10 (6.0 g/day in a single dose), Dosing Day 4, read-out: Compound (1) plasma T1/2, Median (converted)): 24 min
- AUC(0-inf) (6 g/day, Cohort 10 (6.0 g/day in a single dose), Dosing Day 10, read-out: Compound (1) plasma AUC0-inf, Mean): 16400 ng·h/mL
- AUC(0-inf) (6 g/day, Cohort 10 (6.0 g/day in a single dose), Dosing Day 10, read-out: Compound (1) plasma AUC0-inf, Median): 16900 ng·h/mL
- AUC(0-t) (6 g/day, Cohort 10 (6.0 g/day in a single dose), Dosing Day 10, read-out: Compound (1) plasma AUC0-tlast, Mean): 16300 ng·h/mL
- AUC(0-t) (6 g/day, Cohort 10 (6.0 g/day in a single dose), Dosing Day 10, read-out: Compound (1) plasma AUC0-tlast, Median): 16800 ng·h/mL
- Cmax (6 g/day, Cohort 10 (6.0 g/day in a single dose), Dosing Day 10, read-out: Compound (1) plasma Cmax, Mean): 18900 ng/mL
- Cmax (6 g/day, Cohort 10 (6.0 g/day in a single dose), Dosing Day 10, read-out: Compound (1) plasma Cmax, Median): 20000 ng/mL
- half-life (6 g/day, Cohort 10 (6.0 g/day in a single dose), Dosing Day 10, read-out: Compound (1) plasma T1/2, Mean (converted)): 21.6 min
- half-life (6 g/day, Cohort 10 (6.0 g/day in a single dose), Dosing Day 10, read-out: Compound (1) plasma T1/2, Median (converted)): 21 min
- Tmax (Cohort 8 (6.0 g/day divided into equal 2 doses), Dosing Day 4): 30 min
- Tmax (Cohort 9 (4.5 g/day in a single dose), Dosing Day 4): 30 min
